Laboratory results taken from US20260365684A1, “PHYTOSPHINGOSINE-3,4-CYCLICPHOSPHATE COMPOUND AND PHARMACEUTICAL COMPOSITION COMPRISING THE SAME” (AXCESO BIOPHARMA CO., LTD., priority 2022, published 2026).

Legend:
IL-6 = IL-6 in serum after CLP treatment by ELISA; format: in vivo, mouse; details: serum at 18 hours, treated at 6 and 16 hours after CLP; FIG. 10
Method: After CLP treatment, the inflammatory cytokines TNF-α and IL-6 were analyzed by ELISA.
Specifically, after treating the compound of formula (1a-1) at 6 and 16 hours after CLP treatment, mouse blood was collected at 18 hours and allowed to stand at room temperature for 1 hour, then centrifuged at 3000 rpm for 10 minutes to obtain serum to analyze the amount of TNF-α and IL-6.

SH-SY5Y cell lines = assay: Proliferation of neurons (SH-SY5Y, Parkinson's disease cell model), EZ-cytox; format: cell-based, human; details: 5 days, FIG. 4
Method: A medium containing DMEM/F12 (Hyclone), 10% FBS (Hyclone), and 1% penicillin-streptomycin (Hyclone) was used, and the medium was replaced every two days after seeding on a T75 plate. Subculture was performed when the cell density was 80-90%.
Then, to determine the neuronal proliferation effect, the subcultured SH-SY5Y cells were seeded in 96 wells at 5×10^3 cells/well. After 1 day, the medium was replaced with a 5% FBS ratio, and the cells were treated with the compound of formula (1a-1) at concentrations serially diluted 2-fold from 500 nM to 15.6 nM and cultured for 5 days. The medium was replaced with 10% FBS containing the drug every other day. The culture medium with 10% FBS was used as a control. After 5 days, the amount of living cells was measured at 450 nm absorbance using EZ-cytox (DoGen) to compare the cell viability.

lungs of mice = assay: Acute respiratory distress syndrome induced by CLP: lung histology, lung injury score, wet-to-dry weight ratio; format: in vivo, mouse; details: treated at 6 and 16 hours after CLP, lungs harvested at 18 hours
Method: CLP induces pulmonary edema due to increased inflammation and disruption of the vascular barrier, resulting in acute respiratory distress syndrome (ARDS). To determine the effect on ARDS, the compound of formula (1a-1) was treated at 6 and 16 hours after CLP treatment in the same manner as in Experimental Example 7 above, the lungs of mice were harvested at 18 hours for histological analysis, and the wet-to-dry weight ratio of the lungs was obtained. For comparison, mice without CLP treatment served as a control group.
For histologic analysis, the harvested lungs were fixed in 10% paraformaldehyde, infiltrated with paraffin, sectioned into 5 μm-thick tissues, and then de-paraffinized with xylene. Sectioned tissues were mounted on slides, stained with H&E, and observed under an optical microscope. In addition, the lung tissue damage was evaluated by histological score to obtain the lung injury score (LIS) for each group.
To calculate the wet-to-dry weight ratio, lung organs were harvested 18 hours after CLP treatment, and the wet weight was measured immediately after harvesting, and the dry weight was measured after drying in an oven at 60 °C for 48 hours to calculate the wet-to-dry weight ratio. The wet-to-dry weight ratio is used as an indicator of organ edema formation.

[1] = test system: tyrosine hydroxylase (TH); assay: Tyrosine hydroxylase expression in differentiated SH-SY5Y dopaminergic neurons by western blot; format: cell-based, human; details: FIG. 6
Method: To analyze the effect on the expression of tyrosine hydroxylase (TH) and α-synuclein as neuron-specific proteins, western blot was performed.
SH-SY5Y cell line was treated with retinoic acid and 12-O-tetradecanoylphorbol-13-acetate (TPA) to induce differentiation into TH-secreting neurons for 6 days.
Differentiated dopaminergic neurons were lysed in PRO-PREP (Intronbio), a cell lysis solution containing protease inhibitor cocktail (Gendepot), and electrophoresed in 10% SDS polyacrylamide gels at 20 μg/well. Transfer was performed using PVDF (Merck millipore) as a membrane, and tyrosine hydroxylase antibody, «-synuclein antibody (Cell signaling), and β-actin antibody (Santa Cruz) were used for reaction for more than 2 hours. Protein expression was detected by staining with ECL substrate (Biorad) for development and graphed using the image J program.

CCCCCCCCCCCCCC[C@H]1OP(=O)(O)O[C@H]1[C@@H](N)CO.Cl [formula (1a-1), (4S,5R)-4-((S)-1-amino-2-hydroxyethyl)-2-hydroxy-5-tetradecyl-1,3,2-dioxaphosphoran-2-oxide hydrochloride] was tested, and the “amount of IL-6” value (IL-6) was “significantly decreased”, the “proliferation of nerve cells” value (SH-SY5Y cell lines; 15.6 nM to 500 nM) was “proliferation of nerve cells increases with increasing concentrations” and the “concentration of maximum proliferative potency” value (SH-SY5Y cell lines) was about 100 nM. The “lung tissue damage (histology, H&E)” value (lungs of mice; FIG. 9A) was “the lung tissue is almost restored to normal”, the “lung injury score (LIS)” value (lungs of mice; FIG. 9B) was “almost restores the lung injury score to normal” and the “wet-to-dry weight ratio of the lung” value (lungs of mice; FIG. 9C) was “restores the wet-to-dry weight ratio of the lung to normal”. The “expression of TH” value ([1]; differentiated dopaminergic neurons treated with rotenone (RT)) was “the expression of TH decreased by rotenone was restored” and the “effectiveness relative to resveratrol (control drug), TH expression” value ([1]; rotenone-treated differentiated dopaminergic neurons) was “more effective than resveratrol”.
